According to the NIST ThermoML archive (doi:10.1021/je050173+):
Numbers after ± are expanded uncertainties.

Tests used:
[1] = molar heat capacity at constant pressure; conditions: 101.33 kPa, Liquid
[2] = for surface tension liquid-gas: Maximal bubble pressure; for viscosity / mass density / thermal conductivity: 101.33 kPa; for viscosity / mass density / thermal conductivity / vapor or sublimation pressure: Liquid; for thermal conductivity: Hot wire method

C[Si]1(C)O[Si](C)(C)O[Si](C)(C)O[Si](C)(C)O[Si](C)(C)O1 [decamethylcyclopentasiloxane]
Conditions | mass density [kg/m3] | molar heat capacity at constant pressure [J/K/mol] | surface tension liquid-gas [mN/m] | thermal conductivity [W/m/K] | vapor or sublimation pressure [kPa] | viscosity [mPa·s]
[1], 288.78 K | – | 636.3 ± 4.9 | – | – | – | –
[1], 293.13 K | – | 638.5 ± 4.9 | – | – | – | –
[1], 297.95 K | – | 640.6 ± 5 | – | – | – | –
[1], 303.18 K | – | 643.1 ± 5 | – | – | – | –
[1], 308.95 K | – | 644.5 ± 5 | – | – | – | –
[1], 313.15 K | – | 647.7 ± 5 | – | – | – | –
[1], 319 K | – | 650.4 ± 5 | – | – | – | –
[1], 323.15 K | – | 652.4 ± 5.1 | – | – | – | –
[1], 329.05 K | – | 655.1 ± 5.1 | – | – | – | –
[1], 334.74 K | – | 657.9 ± 5.1 | – | – | – | –
[1], 338.5 K | – | 659.5 ± 5.1 | – | – | – | –
[1], 342.08 K | – | 661.2 ± 5.1 | – | – | – | –
[1], 349.25 K | – | 664.5 ± 5.1 | – | – | – | –
[1], 352.2 K | – | 667.1 ± 5.2 | – | – | – | –
[1], 356.83 K | – | 668 ± 5.2 | – | – | – | –
[1], 361.28 K | – | 670.1 ± 5.2 | – | – | – | –
[1], 366.35 K | – | 672.4 ± 5.2 | – | – | – | –
[1], 370.25 K | – | 674.2 ± 5.2 | – | – | – | –
[1], 375.43 K | – | 676.6 ± 5.2 | – | – | – | –
[1], 380.95 K | – | 679.1 ± 5.3 | – | – | – | –
[1], 388.65 K | – | 682.5 ± 5.3 | – | – | – | –
[1], 391.43 K | – | 684 ± 5.3 | – | – | – | –
[1], 399.84 K | – | 687.9 ± 5.3 | – | – | – | –
[1], 401.55 K | – | 688.6 ± 5.3 | – | – | – | –
[1], 407.15 K | – | 691.2 ± 5.4 | – | – | – | –
[1], 412.77 K | – | 693.8 ± 5.4 | – | – | – | –
[1], 419.95 K | – | 697.1 ± 5.4 | – | – | – | –
[1], 425.95 K | – | 698.5 ± 5.4 | – | – | – | –
[1], 433.28 K | – | 703.2 ± 5.4 | – | – | – | –
[1], 439.98 K | – | 706.3 ± 5.5 | – | – | – | –
[1], 444.9 K | – | 709.2 ± 5.5 | – | – | – | –
[1], 452.4 K | – | 711.9 ± 5.5 | – | – | – | –
[1], 463.15 K | – | 716.9 ± 5.6 | – | – | – | –
[1], 469.05 K | – | 719.5 ± 5.6 | – | – | – | –
[1], 473.15 K | – | 721.5 ± 5.6 | – | – | – | –
[2], 293.15 K | – | – | 18.04 ± 0.16 | – | – | 4.28 ± 0.13
[2], 295.05 K | 956.75 ± 0.75 | – | – | – | – | –
[2], 298.15 K | – | – | – | 0.1255 ± 0.0005 | – | 3.87 ± 0.12
[2], 300.1 K | 951.14 ± 0.78 | – | – | – | – | –
[2], 303.15 K | – | – | 17.4 ± 0.16 | – | – | 3.48 ± 0.11
[2], 303.95 K | 946.93 ± 0.81 | – | – | – | – | –
[2], 310.3 K | 939.94 ± 0.85 | – | – | – | – | –
[2], 313.15 K | – | – | 16.71 ± 0.16 | – | – | 2.82 ± 0.09
[2], 313.17 K | 936.67 ± 0.87 | – | – | – | – | –
[2], 320.5 K | 928.72 ± 0.92 | – | – | – | – | –
[2], 323.15 K | – | – | 15.99 ± 0.15 | – | – | 2.38 ± 0.07
[2], 325.6 K | 923.12 ± 0.96 | – | – | – | – | –
[2], 332.95 K | – | – | – | – | – | 2.02 ± 0.06
[2], 333.15 K | 915.02 ± 1 | – | 15.42 ± 0.15 | – | – | –
[2], 340.9 K | 906.3 ± 1.1 | – | – | – | – | –
[2], 343.15 K | – | – | 14.67 ± 0.15 | 0.1186 ± 0.0005 | – | 1.71 ± 0.05
[2], 346.05 K | 900.69 ± 1.1 | – | – | – | – | –
[2], 348.23 K | – | – | – | – | 0.703 ± 0.08 | –
[2], 350.87 K | – | – | – | – | 0.801 ± 0.08 | –
[2], 351.11 K | – | – | – | – | 0.82 ± 0.08 | –
[2], 353.1 K | 892.8 ± 1.1 | – | – | – | – | –
[2], 353.15 K | – | – | 13.98 ± 0.14 | – | – | 1.48 ± 0.05
[2], 355.91 K | – | – | – | – | 1.103 ± 0.08 | –
[2], 357.29 K | – | – | – | – | 1.207 ± 0.08 | –
[2], 361.2 K | – | – | – | – | 1.468 ± 0.081 | –
[2], 363.15 K | – | – | 13.3 ± 0.14 | – | – | –
[2], 366.4 K | 878.24 ± 1.2 | – | – | – | – | –
[2], 370.08 K | – | – | – | – | 2.381 ± 0.081 | –
[2], 373.15 K | 870.77 ± 1.3 | – | 12.64 ± 0.14 | – | – | 1.11 ± 0.04
[2], 374.37 K | – | – | – | – | 2.913 ± 0.081 | –
[2], 377.85 K | – | – | – | – | 3.452 ± 0.081 | –
[2], 378.07 K | – | – | – | – | 3.482 ± 0.081 | –
[2], 380.74 K | – | – | – | – | 3.901 ± 0.082 | –
[2], 381.7 K | 861.4 ± 1.4 | – | – | – | – | –
[2], 391.9 K | 850.17 ± 1.4 | – | – | – | – | –
[2], 393.15 K | – | – | 11.28 ± 0.13 | – | – | 0.86 ± 0.03
[2], 394.66 K | – | – | – | – | 7.191 ± 0.083 | –
[2], 397 K | 844.55 ± 1.5 | – | – | – | – | –
[2], 398.63 K | – | – | – | – | 8.45 ± 0.084 | –
[2], 402.72 K | – | – | – | – | 9.938 ± 0.084 | –
[2], 407.2 K | 833.32 ± 1.6 | – | – | – | – | –
[2], 412.81 K | – | – | – | – | 14.52 ± 0.086 | –
[2], 413.15 K | 826.73 ± 1.6 | – | 9.93 ± 0.12 | – | – | 0.69 ± 0.02
[2], 416.46 K | – | – | – | – | 16.55 ± 0.088 | –
[2], 417.4 K | 822.08 ± 1.6 | – | – | – | – | –
[2], 422.5 K | 816.45 ± 1.7 | – | – | – | – | –
[2], 423.94 K | – | – | – | – | 21.39 ± 0.09 | –
[2], 432.91 K | – | – | – | – | 28.6 ± 0.093 | –
[2], 433.15 K | 804.71 ± 1.8 | – | 8.57 ± 0.12 | – | – | –
[2], 439.98 K | – | – | – | – | 35.47 ± 0.097 | –
[2], 442.9 K | 793.98 ± 1.9 | – | – | – | – | –
[2], 448.41 K | – | – | – | – | 45.28 ± 0.1 | –
[2], 453.15 K | 782.6 ± 2 | – | – | – | – | 0.46 ± 0.02
[2], 455.39 K | – | – | – | – | 54.85 ± 0.11 | –
[2], 462.39 K | – | – | – | – | 66.09 ± 0.11 | –
[2], 473.15 K | – | – | – | – | – | 0.39 ± 0.02
[2], 479.53 K | – | – | – | – | 100.9 ± 0.13 | –
[2], 493.15 K | – | – | – | – | – | 0.33 ± 0.01
